FAM = 5(6)-carboxyfluorescein

For the assay, the system named is NSC-34 cells. Description: Evaluation of Cell Membrane Permeability by Flow Cytometry (transfer of FAM construct into NSC-34 cells). Format: cell-based. As to conditions: NSC-34 cells (mouse motor neuron-like hybrid cell line); 20 μM in culture medium; 20 hours at 37 °C, 5% CO2; flow cytometer, detector FL2. The protocol: As the eukaryotic cells, NSC-34 cells (mouse motor neuron-like hybrid cell line) were used and the cell membrane permeability of the peptides 1 to 3 was analyzed. As a culture medium of the NSC-34 cell, 10% fetal bovine serum (FBS)-containing Dulbecco's modified Eagle's medium (DMEM (Cat No. 044-29765, manufactured by FUJIFILM Wako Pure Chemical Corporation)) was used. The samples 1 to 3 were each dissolved in dimethyl sulfoxide (DMSO) to prepare sample solutions 1 to 3 with a sample concentration of 4 mM. Then, the sample solutions were diluted in the culture medium to prepare 40 μM sample solutions 1 to 3. The aforementioned prepared sample solutions 1 to 3 were used in Examples 1 to 3, and the FAM solution was used in Reference Example 1.
The NSC-34 cell was suspended in the culture medium to prepare a cell suspension of 2×10^5 cells/mL. The cell suspension was added by 1 mL to a well of a commercially available six-hole (well) plate (manufactured by AGC TECHNO GLASS Co., Ltd.) so as to seed the NSC-34 cell to be 2×10^5 cells/well. Next, 1 mL of the 40 μM sample solution 1 was added to the well so that the sample concentration in the culture medium in the well became 20 μM. After that, the six-well plate was left at rest in a cell culture apparatus, and incubated for 20 hours at 37 °C under a 5% CO2 condition.
After the 20-hour incubation, the culture supernatant was removed from the well and the cells in the well were cleaned twice with 1 mL of PBS. Next, 100 μL of the 0.25% trypsin/EDTA solution was added to the well and the incubation was performed for three minutes at 37 °C. After the incubation, 900 μL of the culture medium was added to the well to deactivate the trypsin. Subsequently, the cell suspension in the well was transferred to a tube and the cells were collected. This tube was subjected to five-minute centrifugal separation at 4 °C under a condition of 210×g. […]
Regarding the obtained cells (cell pellet), the cell membrane permeability of the sample 1 was analyzed using a flow cytometer. […]
Using the aforementioned flow cytometer, gating based on forward scatter (FSC) and side scatter (SSC) was performed to set a gate about a cell group to be analyzed, and the fluorescence intensity was measured about the cell group in this gate. […] The fluorescence intensity was measured using a fluorescence detector FL2 of the flow cytometer (optimum detection wavelength around 543 nm) capable of detecting the fluorescence wavelength of FAM. Regarding this measurement result, the analysis was performed using commercially available analysis software “FlowJo” (manufactured by TreeStar) to obtain mean fluorescence intensity (MFI) of the cell group to be measured. […]
As for “5(6)-carboxyfluorescein [Reference Example 1, reference compound]”, the “MFI (mean fluorescence intensity)” value is recorded as 10.9.
The same measure for Ac-SASAG-FAM [Example 1]: 20.9; for “Ac-SASASAG-FAM (Ac-SASASAG-{FAM}) [Example 2, construct: peptide 2 (SASASAG), N-terminus acetylated, with FAM bonded to the C-terminus amino acid residue]”: 19.2; for “Ac-SASASASAG-FAM (Ac-SASASASAG-{FAM}) [Example 3, construct: peptide 3 (…), N-terminus acetylated, with FAM bonded to the C-terminus amino acid residue]”: 22.8.
